Reference: patent US20250009634A1, “LIQUID COMPOSITION OF CERAMIDES AND PALMITIC ACID AMIDES” (Unifarco S.p.A., priority 2021, published 2025)

Text: The samples were made in the standard quantity of 50 g, sufficient to perform the solubilisation and stability tests. The concentration ranges of the investigated actives and the sample preparation methods were established after a critical reading of the technical data sheets of each raw material.

CCCCCCCCCCCCCCCC(=O)NCCO [PMEA, palmitoylethanolamide]
individual solubilisation in the solubilising agent: possible to obtain the individual solubilisation

CCCCCCCCCCCCCCCC(=O)NC(C)C [isopalmide, N-isopropyl-palmitoyl amide]
individual solubilisation in the solubilising agent: possible to obtain the individual solubilisation
